Assay results published in patent EP3753563A1, “ANTI-HERPESVIRUS GUANOSINE ANALOGUE FOR THE INHIBITION OF BASAL AUTOPHAGY” (Helmholtz-Zentrum für Infektionsforschung GmbH, priority 2019, dated 2020).

Tests used:
[1] = test system: 3T3 fibroblasts harbor a RFP-GFP-LC3B tandem reporter construct; experiment: RFP-GFP-LC3B tandem reporter analysis of autophagic flux; assay type: cell-based, mouse; settings: for mode of autophagy modulation: mouse 3T3 fibroblasts
Method: (§1) For the single reporter analyses of figure 1 A549 stably transduced with a retroviral GFP LC3 fusion vector were used, for the tandem reporter analyses of figure 2 NIH mouse fibroblasts stably transduced with a retroviral RFP-GFP-LC3B fusion construct were employed. Cells were seeded on 96-well plates at a density of 3.5 x 10^4 cells per well in 100 µL of their respective growth medium (DMEM for NIH3T3 and F-12K for A549, respectively). The plates were left at room temperature for one hour without moving them to guarantee an even distribution of the cells on the well bottom and then cultured over night at 37 °C and 5% CO2.
(§2) On the next day, compounds were added at the appropriate concentration in either 100 µL of their normal fed medium or 100 µL of Hank's balanced salt solution (HBSS) to induce starvation and then cultured at 37 °C and 5% CO2 for 3 h or 1.5 h respectively. Subsequently, cells were carefully washed once with phosphate buffered saline (PBS), fixed in 4% formaldehyde for 20 min at room temperature and washed again twice with PBS. Nuclear staining was performed using 0.05% Hoechst 33342 solution in PBS for 10 min at room temperature.
(§3) After another two times of washing in PBS, cells could be stored in PBS at 4 °C and were ready for measurement with the automatic fluorescence microscope (ImageXpress Micro XLS Widefield High-Content Imaging system). For each well, images at nine different sites were taken automatically (60x objective, magnification 600x). Exposure times were 150 ms for DAPI, 1000 ms for FITC (single reporter LC3) and 150 ms for DAPI, 1000 ms for FITC, 5000 ms for Texas Red (tandem reporter analysis).
NIH/3T3 cells stably expressing RFP-GFP-LC3 were treated to induce or inhibit autophagy (for control) and with the compound in question and taken for image acquisition (described above). Between 120-160 cells were analyzed in each quantification for vesicular, red spot numbers and colocalization of punctate red/green signals using the Gen5 software package (BioTek). Average values are shown.
In this assay, red spot numbers correlate with total LC3 autophagic particles, yellow colocalization parallels the number of autophagosomes/phagophores.

[2] = test system: A549 GFP-LC3B reporter cells; experiment: High-content GFP-LC3B puncta analysis in fed or starved A549 reporter cells; assay type: cell-based, human
Method: as §1, §2
as §3, with “Exposure times were 150 ms for DAPI, 1000 ms for FITC (single reporter LC3) and 150 ms for DAPI, 1000 ms for FITC, 5000 ms for Texas Red (tandem reporter analysis).” left out
Duplicate samples were analyzed comprising 500-1000 cells/well, which represents a coverage of at least 2%/well. Analyses were performed using the Transfluor modul of MetaXpress 6 software (Molecular Devices) with the following settings: vesicle width 0.5 µm - 5 µm and necessary intensity above local background 2000 gray levels determined from the FITC or 500 gray levels determined from the Texas Red image. Size of nuclei 5 µm - 30 µm and necessary intensity above local background 2000 gray levels determined from the DAPI image.

HSV = settings: read-out: EC 50 concentration for HSV inhibition; cited from earlier work
[3] = test system: wt and mutant ATG4D^G1288A Lagotto Romagnolo dog fibroblasts; experiment: LC3 Western blot of basal and induced autophagy in dog fibroblasts (NVSD model); assay type: cell-based
Method: Induction (starvation in Earle's Balanced Salt Solution (EBSS)) increases autophagy activity, as detected by formation of the marker LC3-II. Since autophagy consists of several steps and the last one is a degradation step, a block must be set in order to assess the proportion of the synthesis/maturation step more precisely. To this end, Bafilomycin A1 (BafA1) is added to the cells. BafA1 inhibits the fusion of autophagosomes to autolysosomes and then the degradation of the vesicle content. The comparison +/- Baf A1 is used to measure the autophagy flux. Since BafA1 inhibits the degradation of vesicle contents, LC3-II determination in WBs can be used to determine the rate of autophagosome production/maturation (corresponding to the early to middle part of the autophagy process) and the rate of autolysosomal degradation (late phase), i.e. the total degradation capacity.
A reference sample was loaded onto each gel to compare the results of different gels. The reference sample consists of WT cells grown in full medium conditions without any treatment. Graphs show expression levels of LC3-II normalized to the loading control (tubulin) and the reference sample and represent mean + SEM.
Fibroblasts from affected dogs and age-, breed-, and sex-matched controls were cultured in high glucose Dulbecco's Modified Eagle Medium (DMEM 41965-039 Gibco) with 10% fetal bovine serum (FBS 10500056 Gibco) and penicillin-streptomycin (PenStrep15140122 Gibco). During second or third passages, cells were seeded at equal density onto Petri dishes and additionally onto glass cover slips. […] Beta actin was used as the loading control for relative quantification of the blots (anti-beta Actin PA5-16914 Thermo Fischer Scientific). Signals were visualized by enhanced chemiluminescence and further analyzed by densitometry. […]

SMILES	mode of autophagy modulation [1]	total LC3 containing autophagic particle numbers compared to the control ([1]; red spot numbers, 2 µM Chloroquine, 120-160 cells)	reduction of LC3 fluorescence compared to the control ([2]; fed A549 cells, vesicular GFP 3h after treatment)	EC50 (HSV) [nM]	reduction of the number of autolysosomes ([1]; calculated by subtraction) [fold]	reduction of total autophagic particle numbers ([1]; compared to the control) [%]	autophagosome/phagophores ([1]; yellow colocalization)	LC3-II levels of basal autophagy ([3]; mutant LR cells, 1 µM A2, two hours, with BafA1)	LC3 levels induced by starvation ([3]; starvation in EBSS, 1 µM A2 (lanes 4 and 8))	LC3 I ([3]; treated mutant cells, Western blot lanes 5 DMSO and A2)	amount of membrane-bound GFP-LC3 compared to the control ([2]; fed cells (basal autophagy), 3 h, LC3-positive vesicle area per cell) [%]	inhibition of induced autophagy ([2]; starved cells, 1.5 h)
CCN(CC)CCCC(C)Nc1ccnc2cc(Cl)ccc12 (stereo not shown) [Chloroquine]	late inhibition	increased	–	–	–	–	–	–	–	–	–	–
CC(=O)OCC(CCn1cnc2cnc(N)nc21)COC(C)=O [Famciclovir]	–	–	2 -fold	–	–	–	–	–	–	–	–	–
Nc1nc2c(ncn2COCCO)c(=O)[nH]1 [compound A2, aciclovir]	early inhibition of autophagy	–	–	1300	4	40	slight increase	diminishes LC3-II levels of basal autophagy in mutant LR cells to level observed in wt cells	nearly unaltered	less LC3 I seems to be present	60	does not inhibit induced autophagy
